Key:
[1] = test system: Smad1/5/8; experiment: Immunoblot of p- and pan-Smad1/5/8 in NIH 3T3; type: cell-based, mouse; conditions: NIH3T3, BMP2 (100ng/mL), 24h
Experimental: Cell culture: HeLa and C2C12 were cultured in DMEM containing 10% FCS and 1 % PS. HFF was cultured in DMEM containing 15% FCS and 1 %PS. NIH 3T3 was cultured in DMEM containing 10% NCS and 1% PS. The cells were maintained unter 5% CO2 at 37°C in a humidified atmosphere. After 24h preincuabtion in serum-free medium, the cells were treated with various compounds and proteins as indicated in context. Transfection of siRNA oligonuleotide against Smurf1 was reported by Zhu et al (Zhu et al., nature 2006) and synthesized by riboxx and performed using riboxx®FECT reagent according to the manufacturer's instructions. 24h after transfection, the cells were treated with BMP (100ng/mL) and Compound as indicated before lysis.
Western blot:: Cell extracts were homogenized in Urea-Lysis buffer (1mM EDTA,0.5% Triton X-100), 5mM NaF, 6M Urea, 1mM Na3VO4, 10µg/mL Pepstatin, 100µM PMSF and 3µg/mL Aprotinin in PBS). Enhanced chemiluminescence (ECL) Western blot analysis was performed. 20-40µg of total protein was resolved on 10% SDS-PAGE gels and immunoblotted with specific antibodies. Primary antibodies were incubated at a 1:1,000 dilution in TBS (pH 7.5) with 0.1% Tween-20 and 5% BSA/nonfat milk with gentle agitation overnight at 4°C. The proper secondary antibodies were incubated in TBS (pH 7.5) with 5% BSA/nonfat milk and 0.1 % Tween-20 at a 1:5,000 dilution for 1 h at room temperature. […]

[2] = test system: BMP/TGFß downstream genes (ID1, ID2, CTGF, SnoN); experiment: qRT-PCR of BMP/TGFß downstream genes in HeLa cells; type: cell-based, human; conditions: E738 (1µM)
Experimental: (§1) RT-PCR: Total RNA was isolated with RNA isolation kit from Qiagen according to the manufacturer's instructions. cDNA was generated by reverse-transcription of equivalent quantities of RNA and Quantitative real-time PCR (QRT-PCR) was performed as described previously.
To evaluate the effect of indirubin on transcriptional activity, we focused on the BMP/Smad pathway and performed RT-PCR to measure the BMP/TGFß downstream genes expression regulated by E738 (Fig. 2E). […] As for ID2 only 50% was remained to be expressed. CTGF, a BMP antagonist and TGFß agonist (Abreu 2002 nature cell biology 4 599-607) and SnoN, a TGFß downstream gene were declined up to approximate 30% and 10% respectively.

[3] = biological target: T1, CDK1/CycB1 (Homo sapiens, UniProt P06493); experiment: Kinase profiling assay (ProQinase), residual activity; type: biochemical; conditions: 1µM E738, 1µM ATP, recombinant protein kinase
T1 construct: purchased ProQinase
T1 sequence (P06493 whole entry): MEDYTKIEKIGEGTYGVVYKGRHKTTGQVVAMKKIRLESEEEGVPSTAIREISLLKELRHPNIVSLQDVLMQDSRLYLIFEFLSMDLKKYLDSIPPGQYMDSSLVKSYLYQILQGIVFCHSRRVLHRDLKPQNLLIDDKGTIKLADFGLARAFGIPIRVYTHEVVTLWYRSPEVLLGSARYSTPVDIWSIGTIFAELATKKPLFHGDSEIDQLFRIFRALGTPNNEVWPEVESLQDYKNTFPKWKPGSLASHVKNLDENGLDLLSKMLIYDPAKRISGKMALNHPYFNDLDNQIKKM
T1 sequence (P14635 whole entry partner): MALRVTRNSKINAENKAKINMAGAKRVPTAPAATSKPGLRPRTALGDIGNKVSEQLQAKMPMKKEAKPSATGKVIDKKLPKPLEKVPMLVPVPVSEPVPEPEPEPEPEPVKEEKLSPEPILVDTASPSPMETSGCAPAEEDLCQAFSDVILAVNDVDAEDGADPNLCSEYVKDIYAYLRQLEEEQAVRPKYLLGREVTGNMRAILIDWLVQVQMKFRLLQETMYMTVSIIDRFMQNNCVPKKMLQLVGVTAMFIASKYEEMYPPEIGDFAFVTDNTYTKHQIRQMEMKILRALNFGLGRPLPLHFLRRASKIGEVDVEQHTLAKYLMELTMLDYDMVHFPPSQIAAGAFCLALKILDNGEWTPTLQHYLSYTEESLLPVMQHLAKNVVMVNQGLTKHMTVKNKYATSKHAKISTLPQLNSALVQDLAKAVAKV
Experimental: (§2) Kinase Assay: The Kinase profiling assay was performed by ProQinase as previously described (Cheng et al.201 0).
(§3) Because E738 initially was designed as a protein kinase inhibitor, we asked if E738 induced dephoshorylation and degradation are caused by certain protein kinases. Thus we exploited protein kinase profiling containing several Smad-relative protein kinases like CDKs and GSK3ß to overview the inhibitory effect of E738 in vitro. The residual activities of kinases were measured by using recombinant protein kinases and proper substrates after treatment with 1µM E738 in the presence of 1µM ATP as our previously described. […] However the mechanism was still remained to elucidate. Recently, researchers argued that Raf kinase inhibitor may induce the activation of MAPKs in vitro and in vivo leading to the failure of cancer therapy (Hatzivassiliou nature 2010 464 431-436, Heidol cell 2010 140 209-221, Murphy PNAS 2010 107 9 4299-4304). We assumed that the indirubin activated MAPKs might be due to its inhibition against Raf kinase. Furthermore, the Lin et. al. described Stat3 inhibitor could disrupt TGFß signaling (Lin oncogene 200928 961-972). Therefore we included Raf and Stat3-relative protein kinases, like Jak, Kit and Src, in this small screening.

[4] = biological target: T2, CDK2/CycA (Homo sapiens, UniProt P24941); experiment: as above; type: biochemical; conditions: 1µM E738, 1µM ATP, recombinant protein kinase
T2 construct: purchased ProQinase
Experimental: as §2, §3

[5] = biological target: T3, CDK4/CycD1 (Homo sapiens, UniProt P11802); experiment: as above; type: biochemical; conditions: 1µM E738, 1µM ATP, recombinant protein kinase
T3 construct: purchased ProQinase
T3 sequence (P11802 whole entry): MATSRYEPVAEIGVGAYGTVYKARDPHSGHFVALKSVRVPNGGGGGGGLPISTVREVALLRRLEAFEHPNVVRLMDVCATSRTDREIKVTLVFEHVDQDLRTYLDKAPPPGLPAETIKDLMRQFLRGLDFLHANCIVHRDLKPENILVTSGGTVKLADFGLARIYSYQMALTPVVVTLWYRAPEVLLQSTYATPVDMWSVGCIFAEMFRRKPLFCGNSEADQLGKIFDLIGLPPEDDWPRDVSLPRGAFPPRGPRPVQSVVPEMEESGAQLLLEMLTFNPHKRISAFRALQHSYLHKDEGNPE
T3 sequence (P24385 whole entry partner): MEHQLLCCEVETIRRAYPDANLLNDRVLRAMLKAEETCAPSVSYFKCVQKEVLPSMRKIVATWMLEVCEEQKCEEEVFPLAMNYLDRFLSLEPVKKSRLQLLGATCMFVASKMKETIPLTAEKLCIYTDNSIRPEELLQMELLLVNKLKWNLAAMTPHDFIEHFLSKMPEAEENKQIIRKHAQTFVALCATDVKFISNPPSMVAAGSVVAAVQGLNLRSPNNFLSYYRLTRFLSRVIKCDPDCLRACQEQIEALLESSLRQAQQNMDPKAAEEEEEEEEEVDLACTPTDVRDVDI
Experimental: as §2, §3

[6] = biological target: T4, CDK5/p35 (Homo sapiens, UniProt Q00535); experiment: as above; type: biochemical; conditions: 1µM E738, 1µM ATP, recombinant protein kinase
T4 construct: purchased ProQinase
T4 sequence (Q00535 whole entry): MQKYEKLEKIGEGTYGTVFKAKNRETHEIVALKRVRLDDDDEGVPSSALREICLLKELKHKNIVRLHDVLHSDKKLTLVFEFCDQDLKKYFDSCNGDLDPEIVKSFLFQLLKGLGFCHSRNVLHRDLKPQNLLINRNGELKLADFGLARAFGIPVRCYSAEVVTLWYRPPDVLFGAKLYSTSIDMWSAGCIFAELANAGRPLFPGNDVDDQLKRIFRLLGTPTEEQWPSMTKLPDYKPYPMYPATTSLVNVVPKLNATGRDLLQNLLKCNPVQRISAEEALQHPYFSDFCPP
T4 sequence (Q15078 whole entry partner): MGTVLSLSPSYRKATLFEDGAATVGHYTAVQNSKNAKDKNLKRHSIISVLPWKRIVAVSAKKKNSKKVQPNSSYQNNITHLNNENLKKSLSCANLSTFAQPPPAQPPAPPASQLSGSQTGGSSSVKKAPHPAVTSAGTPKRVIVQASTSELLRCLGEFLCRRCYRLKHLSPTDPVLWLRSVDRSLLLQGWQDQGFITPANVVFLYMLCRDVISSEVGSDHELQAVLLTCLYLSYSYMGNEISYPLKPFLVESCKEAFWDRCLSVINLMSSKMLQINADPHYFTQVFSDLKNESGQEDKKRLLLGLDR
Experimental: as §2, §3

[7] = biological target: T5, GSK3ß (Homo sapiens, UniProt P49841); experiment: as above; type: biochemical; conditions: read-out: residual activity of GSK3ß
T5 construct: purchased ProQinase
T5 sequence (P49841 whole entry): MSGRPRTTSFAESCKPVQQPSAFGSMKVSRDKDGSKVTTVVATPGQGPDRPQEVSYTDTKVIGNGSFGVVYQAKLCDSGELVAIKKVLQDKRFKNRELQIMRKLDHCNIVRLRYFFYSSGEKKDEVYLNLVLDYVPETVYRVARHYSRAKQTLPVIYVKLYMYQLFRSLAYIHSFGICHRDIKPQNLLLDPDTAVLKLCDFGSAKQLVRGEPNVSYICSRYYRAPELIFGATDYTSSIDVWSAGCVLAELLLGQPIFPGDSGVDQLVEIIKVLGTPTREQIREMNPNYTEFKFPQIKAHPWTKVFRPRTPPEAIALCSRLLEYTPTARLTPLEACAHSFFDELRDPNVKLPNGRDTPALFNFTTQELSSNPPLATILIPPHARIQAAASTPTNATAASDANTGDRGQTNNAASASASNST
Experimental: as §2, §3

[8] = test system: Stat3; experiment: Immunoblot of p-Stat3 in HeLa cells; type: cell-based, human; conditions: 1 h, BMP2 (100ng/mL), already from 0.1µM
Experimental: Western blot:: Cell extracts were homogenized in Urea-Lysis buffer (1mM EDTA,0.5% Triton X-100), 5mM NaF, 6M Urea, 1mM Na3VO4, 10µg/mL Pepstatin, 100µM PMSF and 3µg/mL Aprotinin in PBS). Enhanced chemiluminescence (ECL) Western blot analysis was performed. 20-40µg of total protein was resolved on 10% SDS-PAGE gels and immunoblotted with specific antibodies. Primary antibodies were incubated at a 1:1,000 dilution in TBS (pH 7.5) with 0.1% Tween-20 and 5% BSA/nonfat milk with gentle agitation overnight at 4°C. The proper secondary antibodies were incubated in TBS (pH 7.5) with 5% BSA/nonfat milk and 0.1 % Tween-20 at a 1:5,000 dilution for 1 h at room temperature.
To assess the effect of E738 on Wnt and Stat3 pathway in mammalian cellular context, HeLa cells were treated with E738 at increasing concentrations for 1 h. Here E804 was used as reference because of its well-known inhibition of Stat3 and Wnt. The antibodies of p-Stat3 and non-phosphorylation-ß-Catenin (NP-ß-Catenin, Ser33/37/Thr41), which can provide a convenient positive band if GSK3B is inhibited, were recruited to substantiated our in vitro results. […] With the stimulation of FCS, we also observed the similar regulation on Stat3 and MAPKs pathways depicted in Fig. 8.

[9] = test system: Smad1, Smad2, Smad4, Smurf1 and Smurf2; experiment: qRT-PCR of Smad and Smurf expression in HeLa cells; type: cell-based, human; conditions: BMP2 plus E738, 24h
Experimental: as §1
We considered the possibility of E738 to block Smads RNA synthesis. […] The expressions of Smad-relative E3 ligases, Smurf1 and Smurf2, were inhibited more effectively and only 50% Smurf1 and 30% Smurf2 was remained to expressed. The results provided the regulation of indirubin in RNA level of R-Smads. […] We thus concluded occurrence of degradation direct in protein level rather than in RNA level.

[10] = test system: tumor cells; experiment: MTT assay, tumor cells; type: cell-based; conditions: various cancer cell lines, read-out: IC50-values, tumor cells growth
[11] = test system: Nanog; experiment: Nanog overexpression in Nanog-GFP Hek293T cells; type: cell-based, human; conditions: 1µM E738, 24h

How did the “concentration sufficient to reduce Smad1/5/8” value [1] turn out when COc1ccc2c(c1)C(=C1Nc3ccccc3C1=NOCC(O)CO)C(=O)N2 (stereo not drawn) [E738] was run?
Its value is 0.5 µM.

What about the “p- and pan-Smad1/5/8” value ([1]; E738 0,5µM, 1µM and 5µM) of the same molecule?
Its value is “decline of both”.

And the ID2 expression ([2]; BMP2 (100ng/mL), 1 h after incubation)?
The ID2 expression was “firstly silenced”.

What about the ID2 expression ([2]; BMP2 (100ng/mL), 6h treatment) of the same molecule?
The ID2 expression was “doubled again”.

What about the ID1 expression ([2]; BMP2 (100ng/mL), time course) of the same molecule?
Its ID1 expression is “constantly reduced”.

What about the “CTGF expression, declined up to” value ([2]; BMP, 24h) of the same molecule?
Its value is ~30%.

And the “ID2 remained to be expressed” value ([2]; BMP, 24h)?
Its value is 50%.

And the “SnoN expression, declined up to” value ([2]; BMP, 24h)?
The value was ~10%.

And the “expression of ID1” value ([2]; BMP, 24h)?
Its value is “significantly repressed”.

What about the remaining activity at 1 µM [3] of the same molecule?
The remaining activity at 1 µM was 16%.

And the remaining activity at 1 µM [4]?
Its remaining activity at 1 µM is 10%.

What about the remaining activity at 1 µM [5] of the same molecule?
The remaining activity at 1 µM was 23%.

What about the remaining activity at 1 µM [6] of the same molecule?
The remaining activity at 1 µM was 16%.

What about the remaining activity at 1 µM [7] of the same molecule?
The remaining activity at 1 µM was 6%.

And the “phosphorylation of Stat3” value [8]?
The value was “repressed phosphorylation of Stat3”.

What about the “Smad1 expression, repressed up to” value [9] of the same molecule?
The value was “up to 60%”.

What about the “Smad2 expression, repressed up to” value [9] of the same molecule?
The value was ≤ 30%.

And the “Smurf1 remained to expressed” value [9]?
Its value is 50%.

And the “Smurf2 remained to expressed” value [9]?
The value was 30%.

And the IC50 [10]?
The IC50 was < 1 µM.

What about the Nanog-overexpression [11] of the same molecule?
The Nanog-overexpression was “promotes Nanog-overexpression”.
